Data published in ChEMBL document CHEMBL6074683, “Design, synthesis and investigation of biological activity and mechanism of fluoroaryl-substituted derivatives at the FL118 position 7” (Eur J Med Chem, 2025).
Calls of active or inactive are those of the source. The calls are words filed in the database; no cut-off is given here.

Legend:
PDX27454 [1] = test: Antitumor activity against human PDX27454 cells xenografted in SCID mouse at 2 to 15 mg/kg, ip administered weekly for 4 weeks; assay type: functional, organism-based; conditions: dose 2-15 mg/kg
PDX27454 [2] = test: Antitumor activity against human PDX27454 cells xenografted in SCID mouse at 15 mg/kg, ip administered weekly for 4 weeks; assay type: functional, organism-based
PDX27454 [3] = test: Antitumor activity against human PDX27454 cells xenografted in ip dosed SCID mouse administered weekly for 4 weeks and measured after 35 days; assay type: functional, organism-based; conditions: dose 2-15 mg/kg
[4] = Toxicity in SCID mouse assessed as change in body weight at 2 to 15 mg/kg, ip administered weekly for 4 weeks; assay type: organism-based; conditions: in vivo, 672 h, dose 2-15 mg/kg
HCT-116 [5] = test: Inhibition of colony formation in human HCT-116 cells incubated for 12 hrs by crystal violet staining based assay; assay type: functional, cell-based; conditions: dose 5-25 nM
HCT-116 [6] = test: Induction of ROS generation in human HCT-116 cells incubated for 72 hrs by DCFH-DA staining based assay; assay type: functional, cell-based; conditions: dose 5-100 nM
HCT-116 [7] = test: Induction of ROS generation in human HCT-116 cells incubated for 12 hrs by DCFH-DA staining based assay; assay type: functional, cell-based
HCT-116 [8] = test: Induction of apoptosis in human HCT-116 cells assessed as viable cells at 2.5 nM incubated for 48 hrs by PI/Annexin V-FITC staining based flow cytometry assay (reference value: 93%); assay type: functional; conditions: read-out: Activity
HCT-116 [9] = test: Induction of apoptosis in human HCT-116 cells assessed as early apoptotic cells at 2.5 nM incubated for 48 hrs by PI/Annexin V-FITC staining based flow cytometry assay (reference value: 0.27%); assay type: functional
HCT-116 [10] = test: Induction of apoptosis in human HCT-116 cells assessed as late apoptotic cells at 2.5 nM incubated for 48 hrs by PI/Annexin V-FITC staining based flow cytometry assay (reference value: 4.02%); assay type: functional
HCT-116 [11] = test: Induction of apoptosis in human HCT-116 cells assessed as necrotic cells at 2.5 nM incubated for 48 hrs by PI/Annexin V-FITC staining based flow cytometry assay (reference value: 2.58%); assay type: functional
HCT-116 [12] = test: Induction of apoptosis in human HCT-116 cells assessed as viable cells at 10 nM incubated for 48 hrs by PI/Annexin V-FITC staining based flow cytometry assay (reference value: 93%); assay type: functional; conditions: read-out: Activity
HCT-116 [13] = test: Induction of apoptosis in human HCT-116 cells assessed as early apoptotic cells at 10 nM incubated for 48 hrs by PI/Annexin V-FITC staining based flow cytometry assay (reference value: 0.27%); assay type: functional
HCT-116 [14] = test: Induction of apoptosis in human HCT-116 cells assessed as late apoptotic cells at 10 nM incubated for 48 hrs by PI/Annexin V-FITC staining based flow cytometry assay (reference value: 4.02%); assay type: functional
HCT-116 [15] = test: Induction of apoptosis in human HCT-116 cells assessed as necrotic cells at 10 nM incubated for 48 hrs by PI/Annexin V-FITC staining based flow cytometry assay (reference value: 2.58%); assay type: functional
HCT-116 [16] = test: Induction of apoptosis in human HCT-116 cells assessed as viable cells at 50 nM incubated for 48 hrs by PI/Annexin V-FITC staining based flow cytometry assay (reference value: 93%); assay type: functional; conditions: read-out: Activity
HCT-116 [17] = test: Induction of apoptosis in human HCT-116 cells assessed as early apoptotic cells at 50 nM incubated for 48 hrs by PI/Annexin V-FITC staining based flow cytometry assay (reference value: 0.27%); assay type: functional
HCT-116 [18] = test: Induction of apoptosis in human HCT-116 cells assessed as late apoptotic cells at 50 nM incubated for 48 hrs by PI/Annexin V-FITC staining based flow cytometry assay (reference value: 4.02%); assay type: functional
HCT-116 [19] = test: Induction of apoptosis in human HCT-116 cells assessed as necrotic cells at 50 nM incubated for 48 hrs by PI/Annexin V-FITC staining based flow cytometry assay (reference value: 2.58%); assay type: functional
HCT-116 [20] = test: Downregulation of XIAP protein level in human HCT-116 cells at 50 to 100 nM incubated for 72 hrs by Western blotting assay; assay type: functional, cell-based; conditions: dose 50-100 nM
HCT-116 [21] = test: Downregulation of Bcl-2 protein level in human HCT-116 cells at 50 to 100 nM incubated for 72 hrs by Western blotting assay; assay type: functional, cell-based; conditions: dose 50-100 nM
HCT-116 [22] = test: Downregulation of survivin protein level in human HCT-116 cells at 50 to 100 nM incubated for 72 hrs by Western blotting assay; assay type: functional, cell-based; conditions: dose 50-100 nM
HCT-116 [23] = test: Upregulation of Bax protein level in human HCT-116 cells incubated for 72 hrs by Western blotting assay; assay type: functional, cell-based; conditions: dose 50-100 nM
HCT-116 [24] = test: Upregulation of gammaH2AX protein level in human HCT-116 cells incubated for 72 hrs by Western blotting assay; assay type: functional, cell-based; conditions: dose 50-100 nM
[25] = target: T1, DNA topoisomerase 1 (Homo sapiens) (UniProt P11387); test: Inhibition of topoisomerase 1 (unknown origin) using pBR322 DNA as substrate by ethidium bromide staining based agarose gel electrophoresis method
T1 sequence (whole entry): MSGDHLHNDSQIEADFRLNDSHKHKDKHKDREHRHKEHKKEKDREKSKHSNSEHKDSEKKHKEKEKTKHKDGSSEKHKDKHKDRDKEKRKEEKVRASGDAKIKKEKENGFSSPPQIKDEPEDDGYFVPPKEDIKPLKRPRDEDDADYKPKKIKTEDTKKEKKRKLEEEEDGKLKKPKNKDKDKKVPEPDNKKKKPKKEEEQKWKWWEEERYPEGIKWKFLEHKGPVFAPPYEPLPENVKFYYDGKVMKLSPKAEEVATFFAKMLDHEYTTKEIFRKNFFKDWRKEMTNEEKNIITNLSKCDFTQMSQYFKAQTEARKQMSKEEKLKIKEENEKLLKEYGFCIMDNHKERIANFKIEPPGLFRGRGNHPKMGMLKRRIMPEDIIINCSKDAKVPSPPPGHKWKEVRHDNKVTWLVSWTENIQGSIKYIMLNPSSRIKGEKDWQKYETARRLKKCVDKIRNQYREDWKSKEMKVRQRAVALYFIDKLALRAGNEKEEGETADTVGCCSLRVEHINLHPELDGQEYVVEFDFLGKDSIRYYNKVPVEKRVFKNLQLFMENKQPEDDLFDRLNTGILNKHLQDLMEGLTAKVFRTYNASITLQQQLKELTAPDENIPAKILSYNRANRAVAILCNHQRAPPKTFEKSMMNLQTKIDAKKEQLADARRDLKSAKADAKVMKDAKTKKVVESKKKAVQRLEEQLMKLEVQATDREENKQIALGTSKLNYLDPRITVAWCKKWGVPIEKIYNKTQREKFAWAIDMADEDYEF

HCT-116 [26] = test: Downregulation of DDX5 protein expression in human HCT-116 cells at 100 nM incubated upto 72 hrs by Western blotting assay; assay type: functional, cell-based
[27] = target: T1, DNA topoisomerase 1 (Homo sapiens); test: Inhibition of topoisomerase 1 (unknown origin) using pBR322 DNA as substrate in presence of DDX5 by ethidium bromide staining based agarose gel electrophoresis method
[28] = target: T1, DNA topoisomerase 1 (Homo sapiens); test: Inhibition of topoisomerase 1 (unknown origin) assessed as reduction in nicking of supercoiled DNA at 5 to 50 uM using pBR322 DNA as substrate by ethidium bromide staining based agarose gel electrophoresis method; conditions: dose 5-50 µM
[29] = target: T1, DNA topoisomerase 1 (Homo sapiens); test: Inhibition of topoisomerase 1 (unknown origin) assessed as reduction in nicking of supercoiled DNA at 0.05 to 0.5 uM using pBR322 DNA as substrate by ethidium bromide staining based agarose gel electrophoresis method; conditions: dose 0.05-0.5 µM
HepG2 = test: Cytotoxicity against human HepG2 cells incubated for 72 hrs by MTT assay; assay type: functional, cell-based; conditions: HepG2, 72 h
A549 = test: Cytotoxicity against human A549 cells incubated for 72 hrs by MTT assay; assay type: functional, cell-based; conditions: A549, 72 h
HeLa = test: Cytotoxicity against human HeLa cells incubated for 72 hrs by MTT assay; assay type: functional, cell-based
HCT-116 [30] = test: Cytotoxicity against human HCT-116 cells incubated for 72 hrs by MTT assay; assay type: functional, cell-based; conditions: HCT-116, 72 h

With CC[C@@]1(O)C(=O)OCc2c1cc1n(c2=O)Cc2c-1nc1cc3c(cc1c2-c1ccc(F)c(OC)c1)OCO3 the Activity (PDX27454 [1]) was “Active”, the Activity (PDX27454 [2]) was “Active” and the Activity (PDX27454 [3]) was “Dose-dependent-effect”. The Activity [4] was “Non-toxic”, the inhibition (HCT-116 [5]) was “Dose-dependent-effect” and the Activity (HCT-116 [6]) was “Dose-dependent-effect”. The Activity (HCT-116 [7]) was “inactive”, the viability at 0.0025 µM (HCT-116 [8]) was 84.4% and the Activity (HCT-116 [9]) was 0.64%. The Activity (HCT-116 [10]) was 10.9%, the Activity (HCT-116 [11]) was 4.13% and the viability at 0.01 µM (HCT-116 [12]) was 79%. For the same molecule, the Activity (HCT-116 [13]) was 0.5%, the Activity (HCT-116 [14]) was 16.3% and the Activity (HCT-116 [15]) was 4.17%. It also gave a viability at 0.05 µM (HCT-116 [16]) of 67.5%, an Activity (HCT-116 [17]) of 0.78% and an Activity (HCT-116 [18]) of 25.9%. For the same molecule, the Activity (HCT-116 [19]) was 5.94%, the Activity (HCT-116 [20]) was “Active” and the Activity (HCT-116 [21]) was “Active”. The Activity (HCT-116 [22]) was “Active”, the Activity (HCT-116 [23]) was “Active” and the Activity (HCT-116 [24]) was “Active”. The inhibition [25] was “Active”, the Activity (HCT-116 [26]) was “inactive” and the Activity [27] was “Active”. For the same molecule, the Activity [28] was “Active” and the Activity [29] was “inactive”.
CC[C@@]1(O)C(=O)OCc2c1cc1n(c2=O)Cc2c-1nc1cc3c(cc1c2-c1cc(C)cc(F)c1)OCO3 gave an IC50 (HepG2) of 56 nM, an IC50 (A549) of 30.6 nM and an IC50 (HeLa) of 56.5 nM. The IC50 (HCT-116 [30]) was 41.4 nM.
With CC[C@@]1(O)C(=O)OCc2c1cc1n(c2=O)Cc2c-1nc1cc3c(cc1c2-c1ccc(F)cc1)OCO3 the IC50 (HepG2) was 46.3 nM, the IC50 (A549) was 19.8 nM and the IC50 (HeLa) was 11.1 nM. It also gave an IC50 (HCT-116 [30]) of 32.7 nM.
For CC[C@@]1(O)C(=O)OCc2c1cc1n(c2=O)Cc2c-1nc1cc3c(cc1c2-c1ccc(F)c(C)c1)OCO3, the IC50 (HepG2) was 36.7 nM, the IC50 (A549) was 29.4 nM and the IC50 (HeLa) was 36.6 nM. It also gave an IC50 (HCT-116 [30]) of 25.5 nM.
CCOc1ccc(-c2c3c(nc4cc5c(cc24)OCO5)-c2cc4c(c(=O)n2C3)COC(=O)[C@]4(O)CC)cc1F showed an IC50 (HepG2) of 206 nM, an IC50 (A549) of 352 nM and an IC50 (HeLa) of 42.2 nM. The IC50 (HCT-116 [30]) was 399 nM.
Molecule CC[C@@]1(O)C(=O)OCc2c1cc1n(c2=O)Cc2c-1nc1cc3c(cc1c2-c1cccc(OC(F)(F)F)c1)OCO3 has an IC50 (HepG2) of 16.8 nM, an IC50 (A549) of 26.4 nM and an IC50 (HeLa) of 12.8 nM. The IC50 (HCT-116 [30]) was 14.6 nM.
CC[C@@]1(O)C(=O)OCc2c1cc1n(c2=O)Cc2c-1nc1cc3c(cc1c2-c1ccc(C)c(F)c1)OCO3 showed an IC50 (HepG2) of 36.9 nM, an IC50 (A549) of 48.2 nM and an IC50 (HeLa) of 22.1 nM. The IC50 (HCT-116 [30]) was 50.3 nM.
For CC[C@@]1(O)C(=O)OCc2c1cc1n(c2=O)Cc2c-1nc1cc3c(cc1c2-c1ccc(F)c(F)c1)OCO3, the IC50 (HepG2) was 49.9 nM, the IC50 (A549) was 9 nM and the IC50 (HeLa) was 39.7 nM. The IC50 (HCT-116 [30]) was 48.8 nM.
